Reference: patent US8927724B2, “Isoxazole beta-lactamase inhibitors” (priority 2012, dated 2015)
Where a name gives a salt, the structure may show the parent alone.

Legend:
[1] = tested on: bacterial strains that express KPC β-lactamases; experiment: Synergy MIC / standard BLI potentiation MIC assay, strains expressing KPC β-lactamases; assay type: cell-based; settings: at least one KPC strain and/or better spectrum; in the presence of a β-lactam
Protocol: (§1) The experimental protocol was performed according to Clinical and Laboratory Standards Institute (CLSI) guidelines with modifications as described below (CLSI guidelines can be derived from the CLSI document M07-A9 published in January 2012: “Methods for Dilution Antimicrobial Susceptibility Tests for Bacteria That Grow Aerobically; Approved Standard-Ninth Edition”).
(§2) To prepare for MIC testing, frozen glycerol stocks of clinical isolates (Klebsiella pneumoniae, Eschericia coli, Enterobacter spp, Citrobacter spp, or Pseudomonas aeruginosa) were used to streak for isolated colonies on rich, non-selective, tryptic soy agar containing 5% sheep's blood (TSAB). Frozen glycerol stocks of laboratory engineered, isogenic E. coli strains, which contain cloned β-lactamase expressing plasmids were used to streak for isolated colonies on rich, selective LB agar supplemented with 25 μg/mL tetracycline to maintain the plasmid. All strains were incubated at 37° C. for 18-24 hrs.
(§3) On the day of testing, primary cultures were started by scraping off 5-10 colonies from the TSAB plates containing clinical strains or the tetracycline supplemented LB plates containing engineered strains. The clinical strain material was suspended in ˜5 mL of cation adjusted Mueller Hinton Broth (CAMHB) in 14 mL culture tubes. The engineered strain material was suspended in CAMHB (supplemented with 25 μg/mL tetracycline) in 14 mL culture tubes. All strains were incubated at 37° C. with aeration (200 rpm) for ˜2 hrs until the optical density at 600 nm (OD600) was >0.1.
(§4) The two compound components of the assay were each diluted in CAMHB and added to the 96-well broth microdilution assay plates. 50 μL of the β-lactam was added to each well of the assay plate in 2-fold dilutions with final concentrations ranging from 128 to 0.13 μg/mL. 25 μL of the BLI compound was added to all wells in the broth microdilution plates at a final concentration of 4 μg/mL. Inoculum cultures were prepared by standardizing the primary cultures to OD600=0.1 and then adding 20 μL of the adjusted primary culture per 1 mL CAMHB for clinical strains or CAMHB (supplemented with tetracycline at 100 μg/mL) for engineered strains, so that the final inoculum density was ˜10^5 colony forming units per milliliter. Diluted inoculum cultures were used to inoculate 25 μl, per well in 96-well broth microdilution assay plates. The final volume of each well was 100 μL and contained a β-lactam at different concentrations, a BLI compound at 4 μg/mL concentration, the bacterial culture at an OD600 of approximately 0.001 and when necessary tetracycline at 25 μg/mL.
(§5) Plates were incubated for 18-20 hours at 37° C. with aeration (200 rpm). Following incubation, growth was confirmed visually placing plates over a viewing apparatus (stand with a mirror underneath) and then OD600 was measured using a SpectraMax 340PC384 plate reader (Molecular Devices, Sunnyvale, Calif.). Growth was defined as turbidity that could be detected with the naked eye or achieving minimum OD600 of 0.1. MIC values were defined as the lowest concentration producing no visible turbidity.
The synergy MIC (sMIC) assay determines the concentration of the BLI required to potentiate the activity of a fixed concentration of a β-lactam antibiotic against β-lactamase producing bacterial strains. The experimental protocol was performed according to Clinical and Laboratory Standards Institute (CLSI) guidelines with modifications as described below (CLSI guidelines can be derived from the CLSI document M07-A9 published in January 2012: “Methods for Dilution Antimicrobial Susceptibility Tests for Bacteria That Grow Aerobically; Approved Standard-Ninth Edition”). […]

[2] = tested on: bacterial strains that express the class D cephalosporinase OXA-15; experiment: Synergy MIC / standard BLI potentiation MIC assay, strains expressing OXA-15; assay type: cell-based, E. coli; settings: in the presence of a β-lactam; comparator Avibactam (CCC)
Protocol: as §1, §2, §3, §4, §5
The synergy MIC (sMIC) assay determines the concentration of the BLI required to potentiate the activity of a fixed concentration of a β-lactam antibiotic against β-lactamase producing bacterial strains. […]

NCCNCCc1cc([C@@H]2CC[C@@H]3CN2C(=O)N3OS(=O)(=O)O)no1 [Compound 620, (2S,5R)-2-(5-(2-((2-aminoethyl)amino)ethyl)isoxazol-3-yl)-7-oxo-1,6-diazabicyclo[3.2.1]octan-6-yl hydrogen sulfate]
activity and/or spectrum of activity against bacterial strains that express KPC β-lactamases, compared with Avibactam [1]: more active than Avibactam

O=C1N2C[C@@H](CC[C@H]2c2cc(CC3CNC3)on2)N1OS(=O)(=O)O [Compound 618, (2S,5R)-2-(5-(azetidin-3-ylmethyl)isoxazol-3-yl)-7-oxo-1,6-diazabicyclo[3.2.1]octan-6-yl hydrogen sulfate]
activity against bacterial strains that express OXA-15, compared with Avibactam [2]: more active than Avibactam
activity and/or spectrum of activity against bacterial strains that express KPC β-lactamases, compared with Avibactam [1]: more active than Avibactam

N=C(N)NCC(O)c1cc([C@@H]2CC[C@@H]3CN2C(=O)N3OS(=O)(=O)O)no1 (single isomer, unassigned) [Compound 611, (2S,5R)-2-(5-((R*)-2-guanidino-1-hydroxyethyl)isoxazol-3-yl)-7-oxo-1,6-diazabicyclo[3.2.1]octan-6-yl hydrogen sulfate]
activity against bacterial strains that express OXA-15, compared with Avibactam [2]: more active than Avibactam
activity and/or spectrum of activity against bacterial strains that express KPC β-lactamases, compared with Avibactam [1]: more active than Avibactam

O=C1N2C[C@@H](CC[C@H]2c2cc(COC3CNC3)on2)N1OS(=O)(=O)O [Compound 624, (2S,5R)-2-(5-((azetidin-3-yloxy)methyl)isoxazol-3-yl)-7-oxo-1,6-diazabicyclo[3.2.1]octan-6-yl hydrogen sulfate]
activity and/or spectrum of activity against bacterial strains that express KPC β-lactamases, compared with Avibactam [1]: more active than Avibactam

N=C(N)NCCNC(=O)c1cc([C@@H]2CC[C@@H]3CN2C(=O)N3OS(=O)(=O)O)no1 [Compound 608, (2S,5R)-2-(5-((2-guanidinoethyl)carbamoyl)isoxazol-3-yl)-7-oxo-1,6-diazabicyclo[3.2.1]octan-6-yl hydrogen sulfate]
activity and/or spectrum of activity against bacterial strains that express KPC β-lactamases, compared with Avibactam [1]: more active than Avibactam

N=C(N)N[C@H]1C[C@@H](c2cc([C@@H]3CC[C@@H]4CN3C(=O)N4OS(=O)(=O)O)no2)C1 [Compound 617, (2S,5R)-2-(5-((1s,3R)-3-guanidinocyclobutyl)isoxazol-3-yl)-7-oxo-1,6-diazabicyclo[3.2.1]octan-6-yl hydrogen sulfate]
activity and/or spectrum of activity against bacterial strains that express KPC β-lactamases, compared with Avibactam [1]: more active than Avibactam

N=C(N)N1CCC(NCCc2cc([C@@H]3CC[C@@H]4CN3C(=O)N4OS(=O)(=O)O)no2)CC1 [Compound 610, (2S,5R)-2-(5-(2-((1-carbamimidoylpiperidin-4-yl)amino)ethyl)isoxazol-3-yl)-7-oxo-1,6-diazabicyclo[3.2.1]octan-6-yl hydrogen sulfate]
activity and/or spectrum of activity against bacterial strains that express KPC β-lactamases, compared with Avibactam [1]: more active than Avibactam

O=C1N2C[C@@H](CC[C@H]2c2cc(CC3CCNCC3)on2)N1OS(=O)(=O)O [Compound 627, (2S,5R)-7-oxo-2-(5-(piperidin-4-ylmethyl)isoxazol-3-yl)-1,6-diazabicyclo[3.2.1]octan-6-yl hydrogen sulfate]
activity and/or spectrum of activity against bacterial strains that express KPC β-lactamases, compared with Avibactam [1]: more active than Avibactam

N=C(N)N1CCC(c2cc([C@@H]3CC[C@@H]4CN3C(=O)N4OS(=O)(=O)O)no2)CC1 [Compound 607, (2S,5R)-2-(5-(1-carbamimidoylpiperidin-4-yl)isoxazol-3-yl)-7-oxo-1,6-diazabicyclo[3.2.1]octan-6-yl hydrogen sulfate]
activity and/or spectrum of activity against bacterial strains that express KPC β-lactamases, compared with Avibactam [1]: more active than Avibactam

N=C(N)NCCCc1cc([C@@H]2CC[C@@H]3CN2C(=O)N3OS(=O)(=O)O)no1 [Compound 615, (2S,5R)-2-(5-(3-guanidinopropyl)isoxazol-3-yl)-7-oxo-1,6-diazabicyclo[3.2.1]octan-6-yl hydrogen sulfate]
activity and/or spectrum of activity against bacterial strains that express KPC β-lactamases, compared with Avibactam [1]: more active than Avibactam

NCCNC(=O)c1cc([C@@H]2CC[C@@H]3CN2C(=O)N3OS(=O)(=O)O)no1 [Compound 605, (2S,5R)-2-(5-((2-aminoethyl)carbamoyl)isoxazol-3-yl)-7-oxo-1,6-diazabicyclo[3.2.1]octan-6-yl hydrogen sulfate]
activity and/or spectrum of activity against bacterial strains that express KPC β-lactamases, compared with Avibactam [1]: more active than Avibactam

N[C@H]1C[C@@H](c2cc([C@@H]3CC[C@@H]4CN3C(=O)N4OS(=O)(=O)O)no2)C1 [Compound 616, (2S,5R)-2-(5-((1s,3R)-3-aminocyclobutyl)isoxazol-3-yl)-7-oxo-1,6-diazabicyclo[3.2.1]octan-6-yl hydrogen sulfate]
activity and/or spectrum of activity against bacterial strains that express KPC β-lactamases, compared with Avibactam [1]: more active than Avibactam

N=C(N)NCC(O)c1cc([C@@H]2CC[C@@H]3CN2C(=O)N3OS(=O)(=O)O)no1 (single isomer, unassigned) [Compound 612, (2S,5R)-2-(5-((S*)-2-guanidino-1-hydroxyethyl)isoxazol-3-yl)-7-oxo-1,6-diazabicyclo[3.2.1]octan-6-yl hydrogen sulfate]
activity and/or spectrum of activity against bacterial strains that express KPC β-lactamases, compared with Avibactam [1]: more active than Avibactam

O=C1N2C[C@@H](CC[C@H]2c2cc(CCNC3CNC3)on2)N1OS(=O)(=O)O [Compound 623, (2S,5R)-2-(5-(2-(azetidin-3-ylamino)ethyl)isoxazol-3-yl)-7-oxo-1,6-diazabicyclo[3.2.1]octan-6-yl hydrogen sulfate]
activity and/or spectrum of activity against bacterial strains that express KPC β-lactamases, compared with Avibactam [1]: more active than Avibactam

N=C(N)NCCNCCc1cc([C@@H]2CC[C@@H]3CN2C(=O)N3OS(=O)(=O)O)no1 [Compound 621, (2S,5R)-2-(5-(2-((2-guanidinoethyl)amino)ethyl)isoxazol-3-yl)-7-oxo-1,6-diazabicyclo[3.2.1]octan-6-yl hydrogen sulfate]
activity and/or spectrum of activity against bacterial strains that express KPC β-lactamases, compared with Avibactam [1]: more active than Avibactam

NCc1cc([C@@H]2CC[C@@H]3CN2C(=O)N3OS(=O)(=O)O)no1 [Compound 601, (2S,5R)-2-(5-(aminomethyl)isoxazol-3-yl)-7-oxo-1,6-diazabicyclo[3.2.1]octan-6-yl hydrogen sulfate]
activity and/or spectrum of activity against bacterial strains that express KPC β-lactamases, compared with Avibactam [1]: more active than Avibactam

O=C1N2C[C@@H](CC[C@H]2c2cc(CCNC3CCNCC3)on2)N1OS(=O)(=O)O [Compound 609, (2S,5R)-7-oxo-2-(5-(2-(piperidin-4-ylamino)ethyl)isoxazol-3-yl)-1,6-diazabicyclo[3.2.1]octan-6-yl hydrogen sulfate]
activity and/or spectrum of activity against bacterial strains that express KPC β-lactamases, compared with Avibactam [1]: more active than Avibactam

N=C(N)NC1(Cc2cc([C@@H]3CC[C@@H]4CN3C(=O)N4OS(=O)(=O)O)no2)CC1 [Compound 613, (2S,5R)-2-(5-((1-guanidinocyclopropyl)methyl)isoxazol-3-yl)-7-oxo-1,6-diazabicyclo[3.2.1]octan-6-yl hydrogen sulfate]
activity and/or spectrum of activity against bacterial strains that express KPC β-lactamases, compared with Avibactam [1]: more active than Avibactam

O=C1N2C[C@@H](CC[C@H]2c2cc(CNC3CNC3)on2)N1OS(=O)(=O)O [Compound 622, (2S,5R)-2-(5-((azetidin-3-ylamino)methyl)isoxazol-3-yl)-7-oxo-1,6-diazabicyclo[3.2.1]octan-6-yl hydrogen sulfate]
activity and/or spectrum of activity against bacterial strains that express KPC β-lactamases, compared with Avibactam [1]: more active than Avibactam
